The text below walks through data of patent publication US20100278940A1, “Calcium supplements” (HL DISTRIBUTION COMPANY, priority 2005, published 2010).

In series [1] the test system is osteoblastic hFOB 1.19 cells. Put plainly: MDA assay (H2O2-induced oxidative stress, lipid peroxidation). Type of series: cell-based, human. The conditions noted are these: 24 h. The method, then: (§1) These alterations in temperature were required because hFOB 1.19 cells were conditionally immortalized with a gene encoding a temperature-sensitive mutant (tsA58) of SV40 large T antigen.
(§2) AC was dissolved in HCl:H2O mixture at the ratio of 13:2. Calcium carbonate and calcium citrate were dissolved in distilled water. The stock solution of vitamin D3 was dissolved in ethyl alcohol as per the manufacturer's instructions and directly added in the medium to achieve its final concentration. […] The amount of calcium present in 0.5 mg of AC is 0.15 mg. […] Finally, the pH was maintained same in all the preparations.
After 24 h of treatment with compounds in the presence and absence of H2O2 (0.3 mM), the cells were washed with cold PBS, scraped, and homogenized in lysis buffer. […] of cell lysate was used for measuring the MDA levels by following the manufacturer's instructions. […] In this study, MDA standard was used to construct a standard curve.
(§3) Data were expressed as the mean±SEM of 3-6 independent experiments. Statistical comparisons of the results were made using one way analysis of variance (ANOVA). Significant differences (p≦0.05) between the means of control and test group were analyzed by the Neuman-Keuls multiple comparison test.

Series [2] has as its system Human fetal osteoblast cells (hFOB 1.19). Put plainly: Alkaline phosphatase (ALP) activity in osteoblast cells. Type of series: cell-based. The settings on record: 4 days; AC 0.5 mg/ml, 0.15 mg/ml calcium from carbonate or citrate; mean±SEM. As for the experimental part: as §1, §2, §3
The test system is the same in series [3]. As to the kind of experiment: Mineralization/calcium deposition assay (Alizarin Red S). The series is classed as cell-based. The settings on record: 2 days treatment, without vitamin D3; mean±SEM. The method, then:
as §1, §2, §3

Series [4] has the same test system. As to the kind of experiment: DNA synthesis assay ([3H] thymidine incorporation). The series is classed as cell-based. The settings on record: 4 days treatment, without vitamin D3; mean±SEM. The method, then:
as §1, §2, §3
(Incorporation of labelled thymidine or its analogues reports DNA synthesis.)

For series [5] the test system is unchanged. Put plainly: Immunocytochemistry for proliferating cell nuclear antigen (PCNA) expression. The conditions noted are these: 4 days treatment, without vitamin D3. Type of series: cell-based. The method, then:
Human fetal osteoblast cells (hFOB 1.19-ATCC number: CRL-11372) were seeded at a density of 10,000 cells cm^−2 in a mixture of Dulbecco's modified eagle medium (DMEM) and Ham F12 medium (1:1 ratio) supplemented with 10% fetal bovine serum (FBS) and 0.3 mg/ml […]. Osteoblast cells were cultured in a humidified atmosphere of 5% CO2 at 33.5° C. for cell attachment and proliferation and at 39.5° C. for other assays. These alterations in temperature were required because hFOB 1.19 cells were conditionally immortalized with a gene encoding a temperature-sensitive mutant (tsA58) of SV40 large T antigen.
AC was dissolved in HCl:H2O mixture at the ratio of 13:2. Calcium carbonate and calcium citrate were dissolved in distilled water. The stock solution of vitamin D3 was dissolved in ethyl alcohol as per the manufacturer's instructions and directly added in the medium to achieve its final concentration. […] The same dose was used for further experiments in the present study. The amount of calcium present in 0.5 mg of AC is 0.15 mg. […] Finally, the pH was maintained same in all the preparations.
To evaluate proliferative activity, immunohistochemistry for PCNA was performed after 4 days treatment of AC, calcium carbonate and calcium citrate. The experiment was done by following the instructions of PCNA staining kit (Invitrogen). […]

[6] abbreviates: in presence of 0.3 mM H2O2, mean±SEM.

Molecules are shown by their SMILES.

As to `OO` [Example H2O2, H2O2], the MDA levels in series [1] (0.3 mM H2O2 alone, control 0.6768±0.084) came out at 1.992 ± 0.116 µM.
For the molecule `O=C([O-])[O-].[Ca+2]` [calcium carbonate, Calcium carbonate], in series [2], the ALP activity was determined as 372.2±15.7 nmol/mg protein. Moreover, the “calcium deposition (mineralization)” value in series [3] was 0.1810±0.0115 OD at 561 nm. Besides, in series [4], the “[3H] thymidine incorporation counts (DNA synthesis)” value is reported as 62.8±11.6 cpm. For the same molecule, the MDA levels in series [1] (setting [6]) was determined as 1.263 ± 0.062 µM.
With `O=C([O-])CC(O)(CC(=O)[O-])C(=O)[O-].O=C([O-])CC(O)(CC(=O)[O-])C(=O)[O-].[Ca+2].[Ca+2].[Ca+2]` [calcium citrate], in series [2], the ALP activity came out at 302.1±47.8 nmol/mg protein. Moreover, the “calcium deposition (mineralization)” value in series [3] was 0.1267±0.0054 OD at 561 nm. Further, in series [4], the “[3H] thymidine incorporation counts (DNA synthesis)” value is on record as 45±9.9 cpm. Besides, the MDA levels in series [1] (setting [6]) came to 1.289 ± 0.109 µM. The “expression of PCNA” value in series [5] is “considerably higher than the control and calcium carbonate-treated cells”.
